In article doi:10.1101/2021.01.09.426030v4 (biorxiv, 2022):

Key:
Test in all cases: cells
Parameters in all cases: species or system GBM PDCLs
Settings in all cases: 72 h, read-out: Erlotinib (IC50 µM)
BT112 = system: BT112
BT333 = system: BT333
BT179 = system: BT179

**Q.** Which IC50 (BT112) does the source give for `C#Cc1cccc(Nc2ncnc3cc(OCCOC)c(OCCOC)cc23)c1` [erlotinib] here?
**A.** 18.5 µM

**Q.** What about the IC50 (BT333) of the same compound?
**A.** > 20 µM

**Q.** And the IC50 (BT179)?
**A.** 11.7 µM
